Measurements from patent US6914052B2, “Selective anti-viral nucleoside chain terminators” (The Trustees of Boston College, priority 2001, dated 2005).

Experiments:
Format in all cases: biochemical
Conditions in all cases: single triphosphate offered to enzyme/primer/template complex, template dG; 37° C. for 45 min; denaturing PAGE
[1] = biological target: HIV reverse transcriptase (Human immunodeficiency virus type 1 group M subtype B, UniProt P04585); assay: Primer extension / chain termination with HIV reverse transcriptase
Excerpt: (§1) The nucleoside incorporation experiment for one of the modified nucleotide analog compounds of the present invention is illustrated in FIGS. 12 and 13. […] The first nucleoside added to the primer should be a C residue (coded by the G residue of the template). A single triphosphate of dC or the above analog is offered to the enzyme/primer/template complex. […] In the remaining lanes of the gel, experiments have been designed with only the analog dd2ApyTP present with the primer template complex.
(§2) The following buffers were used for each polymerase: DNA polmerase α, 50 mM Tris.HCl pH 8.0, 5 mM Mg(AcO)2, 1 mM DTT, 1 mM spermidine; DNA pol β 50 mM Tris.HCl pH 8.0, 10 mM MgCl2, 1 mM DTT; DNA Polymerase γ 50 mM Tris.HCl pH 7.5, 100 mM NaCl, 2.5 MM MgCl2; HIV RT 50 mM Tris.HCl pH 8.5, 10 mM MgCl2, 40 mM KCl, 1 mM DTT. Template, primer and the corresponding buffer were mixed and heated to 100° C. for 1 min, allowed to cool to room temperature then placed on ice for 30 min. Once the template and primer had been allowed to anneal the polymerase was added. The appropriate amount of template-primer mixture was added to a vial containing water and the NTP(s) at the desired concentration. Typical reaction volumes were 10 μL. The reactions were incubated at 37° C. for 45 min. […] Primer extensions were analyzed by standard methods by denaturing Polyacrylamide Gel Electrophoresis (PAGE). […]

[2] = biological target: human polymerase β (Homo sapiens, UniProt P06746); assay: Primer extension / chain termination with human polymerase β
Excerpt: as §1, §2

[3] = biological target: T1, human polymerase α (Homo sapiens, UniProt P09884); assay: Primer extension / chain termination with human polymerase α
T1 sequence (P09884 1-1462): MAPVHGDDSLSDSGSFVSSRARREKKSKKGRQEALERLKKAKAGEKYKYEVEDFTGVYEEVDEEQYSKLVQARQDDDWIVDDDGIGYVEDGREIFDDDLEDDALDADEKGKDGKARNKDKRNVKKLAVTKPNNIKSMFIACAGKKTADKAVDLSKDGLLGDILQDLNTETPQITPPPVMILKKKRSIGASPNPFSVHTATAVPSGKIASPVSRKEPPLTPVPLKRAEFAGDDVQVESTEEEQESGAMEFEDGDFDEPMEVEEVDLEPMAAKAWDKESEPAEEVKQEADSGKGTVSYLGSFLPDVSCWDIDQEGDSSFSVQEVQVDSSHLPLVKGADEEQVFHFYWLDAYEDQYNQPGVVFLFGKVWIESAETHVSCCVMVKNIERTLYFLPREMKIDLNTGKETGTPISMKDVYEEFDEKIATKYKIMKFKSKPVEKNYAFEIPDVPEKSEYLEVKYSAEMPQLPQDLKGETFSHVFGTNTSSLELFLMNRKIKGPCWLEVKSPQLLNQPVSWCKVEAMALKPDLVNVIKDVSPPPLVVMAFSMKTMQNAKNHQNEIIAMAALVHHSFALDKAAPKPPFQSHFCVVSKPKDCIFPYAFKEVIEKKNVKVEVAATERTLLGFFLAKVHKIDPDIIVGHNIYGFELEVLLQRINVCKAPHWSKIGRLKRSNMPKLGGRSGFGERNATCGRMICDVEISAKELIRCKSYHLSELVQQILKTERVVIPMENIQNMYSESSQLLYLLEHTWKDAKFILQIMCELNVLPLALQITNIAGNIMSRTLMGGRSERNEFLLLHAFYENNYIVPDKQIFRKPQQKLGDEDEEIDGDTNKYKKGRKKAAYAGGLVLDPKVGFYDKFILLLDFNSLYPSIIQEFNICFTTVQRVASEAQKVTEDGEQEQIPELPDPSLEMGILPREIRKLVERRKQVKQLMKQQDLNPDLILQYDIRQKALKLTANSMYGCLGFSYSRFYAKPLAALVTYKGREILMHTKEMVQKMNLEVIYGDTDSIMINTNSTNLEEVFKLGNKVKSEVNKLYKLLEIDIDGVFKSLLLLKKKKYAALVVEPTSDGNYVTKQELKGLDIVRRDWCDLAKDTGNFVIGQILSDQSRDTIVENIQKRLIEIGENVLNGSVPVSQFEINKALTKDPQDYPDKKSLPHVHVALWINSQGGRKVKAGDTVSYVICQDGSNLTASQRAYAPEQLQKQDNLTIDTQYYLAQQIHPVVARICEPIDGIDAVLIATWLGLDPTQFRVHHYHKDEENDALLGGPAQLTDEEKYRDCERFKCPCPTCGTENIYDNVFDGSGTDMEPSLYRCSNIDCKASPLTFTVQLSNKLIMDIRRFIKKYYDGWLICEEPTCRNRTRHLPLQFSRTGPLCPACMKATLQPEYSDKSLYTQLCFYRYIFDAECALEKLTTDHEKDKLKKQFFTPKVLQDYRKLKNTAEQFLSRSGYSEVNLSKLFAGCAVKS
Procedure: (§3) FIG. 13 illustrates the results for polymerases α and γ.
(§4) The following buffers were used for each polymerase: DNA polmerase α, 50 mM Tris.HCl pH 8.0, 5 mM Mg(AcO)2, 1 mM DTT, 1 mM spermidine; DNA pol β 50 mM Tris.HCl pH 8.0, 10 mM MgCl2, 1 mM DTT; DNA Polymerase γ 50 mM Tris.HCl pH 7.5, 100 mM NaCl, 2.5 MM MgCl2; HIV RT 50 mM Tris.HCl pH 8.5, 10 mM MgCl2, 40 mM KCl, 1 mM DTT. Template, primer and the corresponding buffer were mixed and heated to 100° C. for 1 min, allowed to cool to room temperature then placed on ice for 30 min. Once the template and primer had been allowed to anneal the polymerase was added. The appropriate amount of template-primer mixture was added to a vial containing water and the NTP(s) at the desired concentration. Typical reaction volumes were 10 μL. The reactions were incubated at 37° C. for 45 min. The reactions were quenched using Na-EDTA, heated at 100° C. for 1 min, and then flash frozen in liquid N2. Primer extensions were analyzed by standard methods by denaturing Polyacrylamide Gel Electrophoresis (PAGE).
(§5) Analytical polyacrylamide gel electrophoresis was performed using a 38×50 cm Sequi-Gen GT sequencing cell with a thickness of 0.4 mm and 15% monomer (acrylamide:bisacrylamide 19:1). Gels were run using 90 mM Tris-Borate 1 mM EDTA buffer (pH 8.3). Gels were imaged on Phosphorimager: 425 from Molecular Dynamics (Sunnyvale, Calif.).

[4] = biological target: T2, human polymerase γ (Homo sapiens, UniProt P54098); assay: Primer extension / chain termination with human polymerase γ
T2 sequence (P54098 1-1239): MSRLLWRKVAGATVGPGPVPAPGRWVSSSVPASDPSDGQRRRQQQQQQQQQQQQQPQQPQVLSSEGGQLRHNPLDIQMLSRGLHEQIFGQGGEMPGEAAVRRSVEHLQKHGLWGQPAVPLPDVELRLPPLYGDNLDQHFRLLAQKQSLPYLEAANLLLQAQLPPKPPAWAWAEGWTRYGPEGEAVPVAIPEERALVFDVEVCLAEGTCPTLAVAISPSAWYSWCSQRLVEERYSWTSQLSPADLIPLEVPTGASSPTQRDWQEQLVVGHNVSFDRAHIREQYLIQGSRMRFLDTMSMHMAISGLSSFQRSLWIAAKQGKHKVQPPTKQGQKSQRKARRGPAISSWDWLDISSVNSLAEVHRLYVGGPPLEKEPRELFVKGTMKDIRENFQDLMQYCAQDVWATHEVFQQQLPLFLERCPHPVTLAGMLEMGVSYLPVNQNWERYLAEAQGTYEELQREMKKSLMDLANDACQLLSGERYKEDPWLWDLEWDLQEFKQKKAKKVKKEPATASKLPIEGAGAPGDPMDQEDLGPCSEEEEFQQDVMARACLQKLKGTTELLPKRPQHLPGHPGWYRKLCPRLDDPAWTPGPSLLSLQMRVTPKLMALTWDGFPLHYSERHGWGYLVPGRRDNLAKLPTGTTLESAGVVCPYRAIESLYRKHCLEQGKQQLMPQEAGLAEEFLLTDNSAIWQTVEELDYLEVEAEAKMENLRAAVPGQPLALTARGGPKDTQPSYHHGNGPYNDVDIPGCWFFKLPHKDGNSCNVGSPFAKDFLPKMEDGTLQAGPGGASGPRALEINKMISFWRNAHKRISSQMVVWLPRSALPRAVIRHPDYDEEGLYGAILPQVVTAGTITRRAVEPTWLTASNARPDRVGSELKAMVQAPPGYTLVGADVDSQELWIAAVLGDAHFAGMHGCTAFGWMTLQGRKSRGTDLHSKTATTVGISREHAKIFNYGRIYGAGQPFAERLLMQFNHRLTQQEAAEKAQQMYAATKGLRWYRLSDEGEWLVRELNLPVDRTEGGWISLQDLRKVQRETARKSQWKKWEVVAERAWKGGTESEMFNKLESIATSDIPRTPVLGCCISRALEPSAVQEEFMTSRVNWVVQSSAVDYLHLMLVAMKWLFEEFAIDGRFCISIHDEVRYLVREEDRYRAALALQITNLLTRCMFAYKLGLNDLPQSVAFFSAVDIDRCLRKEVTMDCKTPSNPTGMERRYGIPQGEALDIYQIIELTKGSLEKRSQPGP
Procedure: as §3, §4, §5

Nc1ccn([C@H]2C[C@H](O)[C@@H](COP(=O)(O)OP(=O)(O)OP(=O)(O)O)O2)c(=O)n1 [dCTP]
incorporation of the triphosphate into the primer (primer extension, gel, FIG. 12 left) [1]: two additions of the nucleoside | incorporation of the triphosphate into the primer (primer extension, gel, FIG. 12 right) [2]: incorporated by human polymerase β in the normal fashion | incorporation of the triphosphate into the primer (primer extension, gel, FIG. 13 left) [3]: normal incorporation into the primer | incorporation of the triphosphate into the primer (primer extension, gel, FIG. 13 right) [4]: normal incorporation into the primer
